The structures appear in SMILES notation.

Common to all, as to assay type: cell-based
The test system of test [1] is glioma cells. As to the kind of experiment: release of mature MMP-2 into conditioned media (Western blot, gelatinase activity assay). Particulars: 50 μM.
Experimental: For these experiments, glioma cells were plated in 96 well (5000 cells/well) or 24 well plates (2.5×10^4/well) in serum containing medium (SCM). After overnight incubation, cell cultures were washed and incubated with serum free medium (SFM) for 24 hrs. Cells were then treated with His-Cltx at concentrations ranging from 30 nM to 3000 nM for 10 min or 30 min at 37° C. Cells were washed and replenished with serum free medium and at post-incubation periods of 10 min, 30 min and 24 hrs, conditioned media was collected from all samples and analyzed for matrix-metalloproteinase-2 activity by gelatinase activity assay as well as Western blots analysis for detection of matrix-metalloproteinase-2 protein. Cells treated with irrelevant His-protein were used as a negative control (untreated cells). […] Conditioned media from 10 wells were pooled for gelatinase activity assay as well as western blot analysis and data shown herein represents an average of three experiments.
In test [2] the test system is glioma cells. As to the kind of experiment: in situ zymography of cell surface gelatinolytic activity. To be noted: 50 μM, 30 minutes at 37° C.
Experimental: FITC-labeled DQ gelatin which is intramolecularly quenched (Molecular Probes, Eugene, Oreg.) was used as a substrate for degradation by gelatinases as reported earlier (Oh et al., 1999). Proteolysis by gelatinases yields cleaved FITC-gelatin peptides and the localization of this fluorescence indicates the sites of net gelatinolytic activity. Briefly, glioma cells were plated on 12 mm coverslips. […] Untreated cells served as negative control for this experiment. Cells were then washed with PBS and then incubated with zymography reaction buffer (0.05 M Tris-HCl, 0.15 M NaCl, 5 mM CaCl2 and 0.2 mM NaN3, pH 7.6- the high concentration of azide will prevent the gelatin from phagocytosing and thus allow cell surface gelatinolytic activity to occur) containing 100 μg/ml DQ gelatin at 37° C. overnight. At the end of the incubation period, without fixation or further washes, gelatinolytic activity of the MMP-s was localized and photographed by fluorescence microscopy and the images were acquired by Spot digital camera.
Test [3] relates to glioma cells. Nature of the test: matrigel invasion assay.
Text: Matrigel matrix is a reconstituted basement membrane isolated from Englebreth-Holm-Swarm (EHS) mouse sarcoma, a tumor rich in extracellular matrix proteins. Matrigel-invasion chamber consisted of falcon cell culture inserts of 8 μm pore-size with a uniform layer of matrigel matrix that occludes the membrane pores. […] Cells which remained in the upper chamber were scrubbed off the inserts and the invaded cells were fixed and stained with crystal violet.

As for `c1cnc2c(c1)ccc1cccnc12` [1-10 phenanthroline], the “release of MMP-2 into the medium” value in the test on glioma cells [1] is recorded as “blocked the release”. Moreover, the “inhibition of cell surface gelatinolytic activity versus 300 nM chlorotoxin” value in the test on glioma cells [2] was “comparable”. Moreover, the “inhibition of invasion compared with chlorotoxin” value in the test on glioma cells [3] (glioma cells) is “essentially identical inhibition”. Further, the “change of inhibition of glioma invasion” value in the test on glioma cells [3] (treatment with Filipin) is listed as “only minimally affected”.

For the origin of these results see patent US20030021810A1 (priority 2001, published 2003).
